Data from ChEMBL document CHEMBL2424622, “Development of amino-pyrimidine inhibitors of c-Jun N-terminal kinase (JNK): kinase profiling guided optimization of a 1,2,3-benzotriazole lead” (Bioorg Med Chem Lett, 2013).

How the values were obtained:
[1] = target: T1, Serine/threonine-protein kinase 3 (Homo sapiens) (UniProt Q13188); test: Competitive binding affinity to MST2 (unknown origin) at 10 uM in presence of ATP relative to control
T1 sequence (whole entry): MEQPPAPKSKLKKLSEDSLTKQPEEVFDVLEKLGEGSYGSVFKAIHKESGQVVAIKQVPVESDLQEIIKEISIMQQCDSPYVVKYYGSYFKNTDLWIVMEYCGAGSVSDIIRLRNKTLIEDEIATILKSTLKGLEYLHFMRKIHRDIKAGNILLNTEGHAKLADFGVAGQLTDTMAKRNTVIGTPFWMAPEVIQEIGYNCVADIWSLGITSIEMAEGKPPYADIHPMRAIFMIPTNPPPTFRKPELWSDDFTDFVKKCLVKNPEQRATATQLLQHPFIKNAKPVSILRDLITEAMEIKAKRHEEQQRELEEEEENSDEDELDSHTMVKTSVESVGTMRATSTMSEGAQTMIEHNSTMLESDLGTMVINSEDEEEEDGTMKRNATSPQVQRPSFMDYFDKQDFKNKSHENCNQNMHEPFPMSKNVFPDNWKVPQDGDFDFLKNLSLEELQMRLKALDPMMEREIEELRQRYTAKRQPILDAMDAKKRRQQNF

[2] = target: T2, Serine/threonine-protein kinase TNNI3K (Homo sapiens) (UniProt Q59H18); test: Competitive binding affinity to […] (unknown origin) at 10 uM in presence of ATP relative to control
T2 sequence (whole entry): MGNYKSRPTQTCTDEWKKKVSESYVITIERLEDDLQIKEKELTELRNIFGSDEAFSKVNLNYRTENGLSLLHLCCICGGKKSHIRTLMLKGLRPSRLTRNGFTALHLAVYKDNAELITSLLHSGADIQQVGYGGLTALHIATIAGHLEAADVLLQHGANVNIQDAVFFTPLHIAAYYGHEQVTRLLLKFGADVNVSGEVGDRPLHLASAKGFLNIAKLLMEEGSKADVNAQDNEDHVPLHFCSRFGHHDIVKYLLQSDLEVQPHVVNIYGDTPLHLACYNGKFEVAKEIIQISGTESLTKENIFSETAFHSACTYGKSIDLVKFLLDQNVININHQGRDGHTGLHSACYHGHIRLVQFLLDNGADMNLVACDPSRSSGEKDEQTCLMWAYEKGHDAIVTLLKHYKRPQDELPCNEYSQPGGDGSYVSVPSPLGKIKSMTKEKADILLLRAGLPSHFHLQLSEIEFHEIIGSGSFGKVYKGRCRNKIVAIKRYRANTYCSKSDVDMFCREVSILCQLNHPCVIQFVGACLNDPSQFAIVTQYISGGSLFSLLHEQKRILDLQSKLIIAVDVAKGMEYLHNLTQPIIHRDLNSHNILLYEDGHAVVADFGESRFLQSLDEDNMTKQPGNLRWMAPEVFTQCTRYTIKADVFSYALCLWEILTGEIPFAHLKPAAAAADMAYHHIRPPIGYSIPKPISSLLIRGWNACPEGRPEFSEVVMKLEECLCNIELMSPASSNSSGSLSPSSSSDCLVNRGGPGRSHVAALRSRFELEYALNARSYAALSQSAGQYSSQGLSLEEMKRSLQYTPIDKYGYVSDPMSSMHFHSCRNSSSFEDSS

[3] = target: Dual specificity mitogen-activated protein kinase kinase 2 (Homo sapiens) (UniProt P36507); test: Competitive binding affinity to MEK2 (unknown origin) at 10 uM in presence of ATP relative to control
Dual specificity mitogen-activated protein kinase kinase 2 (Homo sapiens), sequence (P36507 whole entry): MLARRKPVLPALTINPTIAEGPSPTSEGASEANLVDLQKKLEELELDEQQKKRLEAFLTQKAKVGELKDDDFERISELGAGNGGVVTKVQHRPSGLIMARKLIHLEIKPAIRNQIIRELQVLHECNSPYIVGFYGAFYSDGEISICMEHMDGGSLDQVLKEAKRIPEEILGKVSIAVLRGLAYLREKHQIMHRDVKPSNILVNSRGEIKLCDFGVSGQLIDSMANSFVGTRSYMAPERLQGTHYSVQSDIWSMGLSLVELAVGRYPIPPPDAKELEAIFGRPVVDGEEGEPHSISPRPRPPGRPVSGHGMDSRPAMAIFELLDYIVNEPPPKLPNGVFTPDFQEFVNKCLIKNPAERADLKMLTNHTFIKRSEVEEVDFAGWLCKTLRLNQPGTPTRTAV

[4] = target: Tyrosine-protein kinase Srms (Homo sapiens) (UniProt Q9H3Y6); test: Competitive binding affinity to SRMS (unknown origin) at 10 uM in presence of ATP relative to control
Tyrosine-protein kinase Srms (Homo sapiens), sequence (Q9H3Y6 whole entry): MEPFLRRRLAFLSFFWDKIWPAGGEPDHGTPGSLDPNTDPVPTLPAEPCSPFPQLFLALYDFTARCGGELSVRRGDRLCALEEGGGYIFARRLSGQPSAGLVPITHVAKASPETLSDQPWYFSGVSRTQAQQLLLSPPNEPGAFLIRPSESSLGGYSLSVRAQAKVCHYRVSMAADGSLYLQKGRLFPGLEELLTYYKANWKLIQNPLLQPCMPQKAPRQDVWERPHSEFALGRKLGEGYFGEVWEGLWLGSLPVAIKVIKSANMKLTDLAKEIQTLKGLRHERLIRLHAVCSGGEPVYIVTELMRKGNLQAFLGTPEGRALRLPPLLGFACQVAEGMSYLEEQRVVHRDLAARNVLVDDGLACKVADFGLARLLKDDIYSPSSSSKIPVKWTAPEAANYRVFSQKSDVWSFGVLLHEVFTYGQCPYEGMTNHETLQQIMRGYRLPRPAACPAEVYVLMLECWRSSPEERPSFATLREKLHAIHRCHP

[5] = target: T3, NUAK family SNF1-like kinase 1 (Homo sapiens) (UniProt O60285); test: Competitive binding affinity to ARK5 (unknown origin) at 10 uM in presence of ATP relative to control
T3 sequence (whole entry): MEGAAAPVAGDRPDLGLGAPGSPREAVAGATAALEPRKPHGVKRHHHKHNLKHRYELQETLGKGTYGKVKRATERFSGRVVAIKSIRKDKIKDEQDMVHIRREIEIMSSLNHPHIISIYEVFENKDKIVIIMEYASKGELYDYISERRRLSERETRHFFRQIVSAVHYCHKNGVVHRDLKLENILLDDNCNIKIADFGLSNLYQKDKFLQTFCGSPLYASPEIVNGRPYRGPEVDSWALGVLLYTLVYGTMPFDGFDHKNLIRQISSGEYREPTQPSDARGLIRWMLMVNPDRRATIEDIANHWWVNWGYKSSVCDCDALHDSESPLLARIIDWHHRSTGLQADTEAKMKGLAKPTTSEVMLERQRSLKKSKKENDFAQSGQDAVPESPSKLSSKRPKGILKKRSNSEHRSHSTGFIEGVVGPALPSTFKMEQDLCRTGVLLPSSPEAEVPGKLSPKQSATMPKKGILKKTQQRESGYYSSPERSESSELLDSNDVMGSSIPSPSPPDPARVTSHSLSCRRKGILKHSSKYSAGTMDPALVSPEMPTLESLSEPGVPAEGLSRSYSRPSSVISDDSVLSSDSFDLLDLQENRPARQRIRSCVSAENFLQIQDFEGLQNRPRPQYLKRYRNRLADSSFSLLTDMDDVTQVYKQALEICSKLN

[6] = tested on: Proto-oncogene tyrosine-protein kinase receptor Ret (Homo sapiens), P07949 [M918T]; test: Competitive binding affinity to RET M918T mutant (unknown origin) at 10 uM in presence of ATP relative to control
Proto-oncogene tyrosine-protein kinase receptor Ret (Homo sapiens), P07949 [M918T], sequence (P07949 whole entry M918T): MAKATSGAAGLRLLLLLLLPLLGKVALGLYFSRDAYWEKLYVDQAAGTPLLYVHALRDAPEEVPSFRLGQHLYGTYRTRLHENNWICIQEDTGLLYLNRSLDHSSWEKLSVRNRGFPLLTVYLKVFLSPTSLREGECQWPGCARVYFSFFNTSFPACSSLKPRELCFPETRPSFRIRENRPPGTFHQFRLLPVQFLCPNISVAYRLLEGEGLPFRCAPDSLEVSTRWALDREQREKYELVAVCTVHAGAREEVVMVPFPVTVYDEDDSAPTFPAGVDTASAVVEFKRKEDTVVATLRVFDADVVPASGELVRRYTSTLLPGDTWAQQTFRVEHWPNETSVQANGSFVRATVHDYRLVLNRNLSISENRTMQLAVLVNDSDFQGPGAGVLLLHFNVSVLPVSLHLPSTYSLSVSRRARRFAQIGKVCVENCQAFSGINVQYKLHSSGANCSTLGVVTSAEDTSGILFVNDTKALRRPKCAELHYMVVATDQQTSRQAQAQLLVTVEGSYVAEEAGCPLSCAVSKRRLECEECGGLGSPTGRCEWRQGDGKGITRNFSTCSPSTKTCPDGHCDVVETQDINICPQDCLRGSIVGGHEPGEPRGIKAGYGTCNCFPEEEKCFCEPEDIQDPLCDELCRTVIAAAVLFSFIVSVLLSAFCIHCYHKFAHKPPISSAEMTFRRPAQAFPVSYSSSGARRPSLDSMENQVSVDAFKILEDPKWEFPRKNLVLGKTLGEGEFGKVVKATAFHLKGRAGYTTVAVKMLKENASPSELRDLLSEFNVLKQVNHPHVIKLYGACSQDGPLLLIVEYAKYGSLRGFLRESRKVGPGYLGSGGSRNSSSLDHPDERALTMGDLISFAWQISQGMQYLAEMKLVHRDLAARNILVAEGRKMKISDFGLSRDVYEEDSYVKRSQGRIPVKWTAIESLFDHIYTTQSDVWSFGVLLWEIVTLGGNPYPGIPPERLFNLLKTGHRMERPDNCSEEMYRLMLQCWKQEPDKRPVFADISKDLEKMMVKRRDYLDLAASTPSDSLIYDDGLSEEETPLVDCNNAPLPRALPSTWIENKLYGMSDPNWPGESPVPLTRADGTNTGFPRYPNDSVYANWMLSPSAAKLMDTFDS

[7] = target: Cyclin-dependent kinase 17 (Homo sapiens) (UniProt Q00537); test: Competitive binding affinity to PCTK2 (unknown origin) at 10 uM in presence of ATP relative to control
Cyclin-dependent kinase 17 (Homo sapiens), sequence (Q00537 whole entry, looked up): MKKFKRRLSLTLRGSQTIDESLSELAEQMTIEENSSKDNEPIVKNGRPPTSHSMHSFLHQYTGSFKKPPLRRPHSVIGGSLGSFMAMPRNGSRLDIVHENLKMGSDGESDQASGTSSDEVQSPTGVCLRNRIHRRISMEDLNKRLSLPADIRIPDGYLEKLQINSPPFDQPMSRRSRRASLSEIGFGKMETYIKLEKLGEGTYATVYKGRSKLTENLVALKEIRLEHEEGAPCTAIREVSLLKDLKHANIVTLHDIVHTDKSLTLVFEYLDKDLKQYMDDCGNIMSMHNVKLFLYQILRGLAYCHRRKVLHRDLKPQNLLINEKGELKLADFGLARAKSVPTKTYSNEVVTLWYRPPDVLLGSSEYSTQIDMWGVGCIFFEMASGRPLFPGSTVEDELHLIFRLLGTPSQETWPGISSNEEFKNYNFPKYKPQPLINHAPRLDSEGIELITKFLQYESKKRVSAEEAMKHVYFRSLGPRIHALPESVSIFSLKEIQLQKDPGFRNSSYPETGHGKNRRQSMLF

[8] = target: T4, Serine/threonine-protein kinase 4 (Homo sapiens) (UniProt Q13043); test: Competitive binding affinity to STK4 (unknown origin) at 10 uM in presence of ATP relative to control
T4 sequence (whole entry): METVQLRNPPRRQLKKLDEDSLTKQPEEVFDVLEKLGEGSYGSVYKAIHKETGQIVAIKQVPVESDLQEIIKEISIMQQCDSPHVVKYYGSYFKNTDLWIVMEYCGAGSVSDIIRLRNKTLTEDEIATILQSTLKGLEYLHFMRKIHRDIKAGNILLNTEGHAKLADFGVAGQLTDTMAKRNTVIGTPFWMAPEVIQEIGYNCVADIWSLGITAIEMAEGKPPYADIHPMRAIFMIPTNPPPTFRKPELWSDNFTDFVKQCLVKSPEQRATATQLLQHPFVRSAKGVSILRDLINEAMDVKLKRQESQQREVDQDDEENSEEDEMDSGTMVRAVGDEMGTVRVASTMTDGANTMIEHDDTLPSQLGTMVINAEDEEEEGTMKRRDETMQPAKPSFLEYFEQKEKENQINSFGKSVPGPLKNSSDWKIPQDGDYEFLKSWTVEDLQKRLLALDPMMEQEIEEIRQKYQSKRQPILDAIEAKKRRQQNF

| Compound | inhibition [1] [%] | inhibition [2] [%] | inhibition [3] [%] | inhibition [4] [%] | inhibition [5] [%] | inhibition [6] [%] | inhibition [7] [%] | inhibition [8] [%] |
| --- | --- | --- | --- | --- | --- | --- | --- | --- |
| O[C@H]1CC[C@H](Nc2nccc(-n3nnc4ccccc43)n2)CC1 | 95 | < 50 | < 50 | < 50 | 72 | < 50 | 88 |  |
| N[C@H]1CC[C@H](Nc2nccc(-n3nnc4ccccc43)n2)CC1 |  |  |  |  |  |  |  | < 50 |
| O=C([C@H]1CC[C@H](Nc2nccc(-n3nnc4ccccc43)n2)CC1)N1CCOCC1 |  |  |  |  |  |  |  | < 50 |
| O[C@H]1CC[C@H](Nc2nccc(-n3ncc4ccccc43)n2)CC1 | 81 | < 50 | < 50 | < 50 | 74 | < 50 | 78 |  |
| O[C@H]1CC[C@H](Nc2nccc(-c3n[nH]c4ccccc34)n2)CC1 |  | < 50 |  |  |  |  |  | < 50 |
| O[C@H]1CC[C@H](Nc2nccc(-n3ccc4ccccc43)n2)CC1 | < 50 | < 50 | < 50 | < 50 | < 50 | < 50 | 73 |  |
